Paper doi:10.1101/2021.11.01.466777v1 (bioRxiv, 2021)
Starred links: 1 amine or outer side, 2 acyl side, 3 side chain; linkers in the order of their positions; H or OH if unused. Positions of bridges follow the written chain, without caps; N, C: chain ends. Non-standard residues stand in square brackets, D forms with d. Residues, ends and D or L forms follow the SMILES beside them. *: point of attachment. dAsp(3R-OH) = N[C@@H](C(=O)O)[C@@H](O)C(=O)O; X1 = NC[C@H](O)[C@@H](N[*:1])C(=O)[*:2]; X2 = CCC(C)(O)[C@H](N[*:1])C(=O)[*:2]; d(aIle) = CC[C@H](C)[C@@H](N)C(=O)O; d(aThr) = C[C@@H](O)[C@@H](N)C(=O)O; Myristoyl = CCCCCCCCCCCCCC(=O)*; dOrn = NCCC[C@@H](N)C(=O)O; hSer = N[C@@H](CCO)C(=O)O

What was measured:
[1] = Pharmacokinetics after IV slow bolus in uninfected mice; assay type: in vivo, mouse (female BALB/c); conditions: 5 mg/kg IV; for Plasma concentration, Mean: mean of n = 3
[2] = system: neutropenic female BALB/c mice; test: Toxicity and Maximum Tolerated Dose; assay type: in vivo, mouse
[3] = human volunteers; no reference given; cited from earlier work

CCCCCCCCCCCCCC(=O)N[C@H](CCCN)C(=O)N[C@@H](CO)C(=O)N[C@H](C(=O)N[C@@H](C(=O)N[C@@H](C(=O)N[C@H]1C(=O)NCC(=O)N[C@@H](C(C)(O)CC)C(=O)N[C@H]([C@@H](C)CC)C(=O)N[C@@H](CCO)C(=O)N[C@@H](C)C(=O)N[C@H]([C@@H](C)CC)C(=O)N[C@@H](CCC(=O)O)C(=O)O[C@@H]1C)[C@@H](O)CN)[C@@H](O)C(=O)O)C(C)C (stereo partly drawn) [turnercyclamycin A] (Myristoyl-[dOrn]SV[dAsp(3R-OH)][X1][d(aThr)]G[X2][d(aIle)][hSer]A[d(aIle)]E; ester 6-C)
Plasma concentration, Mean ([1]; 0.05 h): 53333 ng/mL | Sample concentration in plasma ([1]; 0.05 h, sample 1, LC-MS/MS): 52235 ng/mL | Sample concentration in plasma ([1]; 0.05 h, sample 2, LC-MS/MS): 51887 ng/mL | Sample concentration in plasma ([1]; 0.05 h, sample 3, LC-MS/MS): 55877 ng/mL | Plasma concentration, Mean ([1]; 0.167 h): 38646 ng/mL | Sample concentration in plasma ([1]; 0.167 h, sample 1, LC-MS/MS): 36107 ng/mL | Sample concentration in plasma ([1]; 0.167 h, sample 2, LC-MS/MS): 38906 ng/mL | Sample concentration in plasma ([1]; 0.167 h, sample 3, LC-MS/MS): 40924 ng/mL | Plasma concentration, Mean ([1]; 1 h): 29269 ng/mL | Sample concentration in plasma ([1]; 1 h, sample 1, LC-MS/MS): 24635 ng/mL | Sample concentration in plasma ([1]; 1 h, sample 3, LC-MS/MS): 29337 ng/mL | Plasma concentration, Mean ([1]; 2 h): 26200 ng/mL | Sample concentration in plasma ([1]; 2 h, sample 1, LC-MS/MS): 26373 ng/mL | Sample concentration in plasma ([1]; 2 h, sample 2, LC-MS/MS): 25446 ng/mL | Sample concentration in plasma ([1]; 2 h, sample 3, LC-MS/MS): 26782 ng/mL | Plasma concentration, Mean ([1]; 4 h): 22542 ng/mL | Sample concentration in plasma ([1]; 4 h, sample 1, LC-MS/MS): 22923 ng/mL | Sample concentration in plasma ([1]; 4 h, sample 2, LC-MS/MS): 22209 ng/mL | Sample concentration in plasma ([1]; 4 h, sample 3, LC-MS/MS): 22495 ng/mL | Plasma concentration, Mean ([1]; 8 h): 11971 ng/mL | Sample concentration in plasma ([1]; 8 h, sample 1, LC-MS/MS): 11661 ng/mL | Sample concentration in plasma ([1]; 8 h, sample 2, LC-MS/MS): 13130 ng/mL | Sample concentration in plasma ([1]; 8 h, sample 3, LC-MS/MS): 11123 ng/mL | Plasma concentration, Mean ([1]; 24 h): 931 ng/mL | Sample concentration in plasma ([1]; 24 h, sample 1, LC-MS/MS): 974 ng/mL | Sample concentration in plasma ([1]; 24 h, sample 2, LC-MS/MS): 764 ng/mL | Sample concentration in plasma ([1]; 24 h, sample 3, LC-MS/MS): 1054 ng/mL | CL ([1]; mouse plasma, NCA): 0.29 mL/min/kg | Sample concentration in plasma ([1]; time printed 0 h, sample 1, LC-MS/MS): 34373 ng/mL | Sample concentration in plasma ([1]; time printed 0 h, sample 2, LC-MS/MS): 31954 ng/mL | Sample concentration in plasma ([1]; time printed 0 h, sample 3, LC-MS/MS): 34645 ng/mL | body weight change ([2]; 25 mg/kg (printed mg/mL) IV BID q12h, 24 hours after first treatment): no body weight drop was observed | mortality ([2]; 25 mg/kg (printed mg/mL) IV BID q12h, n = 3): did not induce mortality in any mice | Body Weight ([2]; 25 mg/kg IV bid (q12h) x1, mouse No. 7, Day 0 (first)): 17 g | Body Weight ([2]; 25 mg/kg IV bid (q12h) x1, mouse No. 7, Day 1): 17 g | Body Weight ([2]; 25 mg/kg IV bid (q12h) x1, mouse No. 8, Day 0 (first)): 17 g | Body Weight ([2]; 25 mg/kg IV bid (q12h) x1, mouse No. 8, Day 1): 17 g | body weight change ([2]; 50 mg/kg (printed mg/mL) IV BID q12h, 24 hours post-treatment): slight body weight losses were observed | mortality ([2]; 50 mg/kg (printed mg/mL) IV BID q12h, n = 3): did not induce mortality in any mice | Body Weight ([2]; 50 mg/kg IV bid (q12h) x1, mouse No. 4, Day 0 (first)): 16 g | Body Weight ([2]; 50 mg/kg IV bid (q12h) x1, mouse No. 4, Day 0 (second)): 15 g | Body Weight ([2]; 50 mg/kg IV bid (q12h) x1, mouse No. 4, Day 1): 15 g | Body Weight ([2]; 50 mg/kg IV bid (q12h) x1, mouse No. 5, Day 0 (first)): 15 g | Body Weight ([2]; 50 mg/kg IV bid (q12h) x1, mouse No. 5, Day 1): 14 g | Body Weight ([2]; 50 mg/kg IV bid (q12h) x1, mouse No. 6, Day 0 (first)): 16 g | Body Weight ([2]; 50 mg/kg IV bid (q12h) x1, mouse No. 6, Day 0 (second)): 16 g | Body Weight ([2]; 50 mg/kg IV bid (q12h) x1, mouse No. 6, Day 1): 16 g | mortality ([2]; 100 mg/kg IV): fatal in the first mouse | well tolerated dose ([2]; mice, IV BID q12h): up to 25 mg/kg | Maximum Tolerated Dose (MTD) ([2]; neutropenic female BALB/c mice, IV BID q12h, n = 3 per dose): 25 mg/kg

daptomycin
volume of distribution [3]: 0.1 L/kg
